In paper PMC11882969 (Nature Communications, 2025):
Where “and” joins values, the source holds several entries; their conditions need not be identical. Equal values may be shown once.

Tests used:
mice = test: Tail flick, 50 °C water bath; assay type: in vivo, mouse; conditions: individual animals, sheet Figure7b, test not given
[1] = target: T1, CB1R with G protein (Gi1-3, Go) (Homo sapiens, UniProt P21554); test: GTP turnover assay (GTPase-Glo); assay type: biochemical; conditions: replicates, sheet FigS3c
T1 construct: a N-terminal FLAG tag and C-terminal histidine tag was added to human full-length CB1; FLAG (N); histidine tag (C); made in house; host or cells: CB1R: Spodoptera frugiperda Sf9; G proteins: Trichoplusia ni Hi5
T1 sequence (P21554 whole entry): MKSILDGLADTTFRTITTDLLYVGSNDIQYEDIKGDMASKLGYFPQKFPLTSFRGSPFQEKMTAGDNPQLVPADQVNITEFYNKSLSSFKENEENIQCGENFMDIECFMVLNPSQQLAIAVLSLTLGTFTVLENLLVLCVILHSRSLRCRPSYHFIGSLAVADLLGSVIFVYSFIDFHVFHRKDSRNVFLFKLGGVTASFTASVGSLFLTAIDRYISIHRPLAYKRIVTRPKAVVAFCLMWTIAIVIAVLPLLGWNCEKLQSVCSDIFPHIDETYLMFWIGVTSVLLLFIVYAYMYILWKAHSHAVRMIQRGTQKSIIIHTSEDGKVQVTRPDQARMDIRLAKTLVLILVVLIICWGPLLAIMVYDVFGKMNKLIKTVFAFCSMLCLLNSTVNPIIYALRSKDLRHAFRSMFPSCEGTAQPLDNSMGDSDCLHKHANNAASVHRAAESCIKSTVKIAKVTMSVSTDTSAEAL
Description: Analysis of GTP turnover was performed by using a modified protocol of the GTPase-Glo^TM assay (Promega) described previously. Ligand-bound (10 μM ligand incubated for one hour at room temperature) or apo CB1R (1 μM) was mixed with G protein (1 μM) in 20 mM HEPES, pH 7.5, 50 mM NaCl, 0.01% L-MNG/0.001% CHS, 100 μM TCEP, 10 μM GDP and 10 μM GTP and incubated at room temperature. GTPase-Glo-reagent was added to the sample after incubation for 60 min (Gi1-3) and 20 min for (Go). Luminescence was measured after the addition of detection reagent and incubation for 10 min at room temperature using a SpectraMax Paradigm plate reader.

SMILES	Response relative to baseline (baseline about 100) (mice; '4042 0.05 mg/kg, 0.05 mg/kg)	Response relative to baseline (baseline about 100) (mice; '4042 0.1 mg/kg, 0.1 mg/kg)	GTP turnover, normalised (FUB about 100) ([1]; Gi2)	GTP turnover, normalised (FUB about 100) ([1]; Gi3)	GTP turnover, normalised (FUB about 100) ([1]; Goa)	GTP turnover, normalised (FUB about 100) ([1]; first block, G protein not printed (Gi2, Gi3, Goa follow))
COC(=O)C(C)(NC(=O)c1cc(C)n(-c2cccc(C(F)(F)F)c2)n1)c1cccs1 (stereo not drawn) [‘4042]	262 and 191 and 164 and 198 and 183	419.4 and 155.9 and 181.4 and 122.5 and 239.8	–	–	–	–
COC(=O)[C@](C)(NC(=O)c1cc(C)n(-c2cccc(C(F)(F)F)c2)n1)c1cccs1 [‘8690]	–	–	16.9643 and 39.0749 and 37.2739 and 44.0104 and 47.8141 and 43.1917	40.931 and 39.8765 and 45.2237 and 46.1547 and 48.6065 and 44.9238	61.5575 and 70.4664 and 69.7244 and 64.4739 and 72.6259 and 67.4132	38.198 and 43.143 and 41.7234 and 41.9514 and 39.8163 and 42.5776
